The results in this text go back to publication PMC5268466, “Monofluorophosphate Blocks Internal Polysaccharide Synthesis in Streptococcus mutans” (PLoS ONE, 2017).

The target in this assay is T1, S. mutans ADP-Glc PPase (GlgC/GlgD) (Streptococcus mutans, UniProt M9TIK1).
T1 sequence (M9TIK1 1-381): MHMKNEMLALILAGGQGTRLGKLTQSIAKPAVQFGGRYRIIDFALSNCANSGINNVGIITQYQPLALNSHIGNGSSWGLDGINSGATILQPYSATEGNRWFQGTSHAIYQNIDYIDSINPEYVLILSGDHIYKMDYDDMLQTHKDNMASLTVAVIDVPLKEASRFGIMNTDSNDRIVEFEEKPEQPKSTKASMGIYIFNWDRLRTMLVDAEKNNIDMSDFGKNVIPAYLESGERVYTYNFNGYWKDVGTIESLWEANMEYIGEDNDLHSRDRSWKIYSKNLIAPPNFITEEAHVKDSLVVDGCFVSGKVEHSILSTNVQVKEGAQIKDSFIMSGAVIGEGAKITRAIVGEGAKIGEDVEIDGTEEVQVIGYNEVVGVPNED
T1 sequence (M9TG57 1-377 partner): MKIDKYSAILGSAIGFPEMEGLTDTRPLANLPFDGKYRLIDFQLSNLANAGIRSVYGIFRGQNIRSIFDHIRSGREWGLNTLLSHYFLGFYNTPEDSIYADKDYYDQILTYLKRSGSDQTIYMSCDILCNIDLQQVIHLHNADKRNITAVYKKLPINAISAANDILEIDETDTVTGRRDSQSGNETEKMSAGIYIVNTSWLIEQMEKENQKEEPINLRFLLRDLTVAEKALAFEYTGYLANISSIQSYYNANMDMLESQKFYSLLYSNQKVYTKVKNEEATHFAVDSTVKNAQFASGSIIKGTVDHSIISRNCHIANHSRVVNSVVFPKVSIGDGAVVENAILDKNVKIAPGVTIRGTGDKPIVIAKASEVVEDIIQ
The conditions noted are these: 2500 µM, pH 8.0, 37 C, allosteric.

`O=P(O)(O)O` [Pi, orthophosphate]: the “No Fru-1,6-bisP / Activity (% remaining activity)” value came out at 15 ± 2%.
